Reference: patent US7795261B2, “Substituted 1-piperidin-4-yl-4-pyrrolidin-3-yl-piperazine derivatives and their use as neurokinin antagonists” (Janssen Pharmaceutica NV, priority 2002, dated 2010)

Tests used:
Format in all cases: cell-based
NK1 = NK1 (Homo sapiens, UniProt P25103); experiment: Signal transduction (ST), intracellular Ca++ (FLIPR), NK1 antagonistic activity; conditions: read-out: pIC50 NK1 (converted)
Summary of the method: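 Antagonist IC50 was fitted by non-linear regression of peak intracellular Ca++ signals measured on FLIPR after agonist challenge. Beforehand, Fluo3-loaded confluent cells received antagonists over a concentration range for 20 min at room temperature in Ca++ Krebs buffer, pH 7.4.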

NK2 = molecular target: T1, NK2 (Homo sapiens, UniProt P21452); experiment: Signal transduction (ST), intracellular Ca++ (FLIPR), NK2; conditions: read-out: pIC50 NK2 (converted)
T1 sequence (P21452 1-398): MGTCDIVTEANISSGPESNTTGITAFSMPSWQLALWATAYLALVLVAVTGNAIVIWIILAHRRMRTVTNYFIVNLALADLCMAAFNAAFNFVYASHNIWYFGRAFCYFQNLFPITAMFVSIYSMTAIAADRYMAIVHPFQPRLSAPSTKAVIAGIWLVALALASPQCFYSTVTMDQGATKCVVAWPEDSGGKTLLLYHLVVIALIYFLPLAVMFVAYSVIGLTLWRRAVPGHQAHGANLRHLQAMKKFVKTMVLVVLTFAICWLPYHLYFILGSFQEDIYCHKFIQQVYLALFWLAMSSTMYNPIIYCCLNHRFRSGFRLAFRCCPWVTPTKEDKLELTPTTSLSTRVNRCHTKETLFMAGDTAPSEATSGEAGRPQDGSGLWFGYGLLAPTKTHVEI
Description: [The procedure below names another target; the source lists this target under the same test.] This test evaluates in vitro functional NK1 antagonistic activity. For the measurements of intracellular Ca^++ concentrations the cells were grown on 96-well (black wall/transparent bottom) plates from Costar for 2 days until they reached confluence. The cells were loaded with 2 μM Fluo3 in DMEM containing 0.1% BSA and 2.5 mM probenecid for 1 h at 37° C. They were washed 3× with a Krebs buffer (140 mM NaCl, 1 mM MgCl2×6H2O, 5 mM KCl, 10 mM glucose, 5 mM HEPES; 1.25 mM CaCl2; pH 7.4) containing 2.5 mM probenecid and 0.1% BSA (Ca^++-buffer). The cells were preincubated with a concentration range of antagonists for 20 min at RT and Ca^++-signals after addition of the agonists were measured in a Fluorescence Image Plate Reader (FLIPR from Molecular Devices, Crawley, England). The peak of the Ca^++-transient was considered as the relevant signal and the mean values of corresponding wells were analysed as described below.
The sigmoidal dose response curves were analysed by computerised curve-fitting, using the GraphPad Program. […] For antagonist responses the IC50-value was calculated using non-linear regression.
The last columns indicates—without being limited therefore—for which the compounds might be most suitable. Of course, since for some neurokinin receptors no data was determined, it is obvious that these compounds might be attributed to another suitable use.

NK3 = molecular target: T2, NK3 (Homo sapiens, UniProt P29371); experiment: Signal transduction (ST), intracellular Ca++ (FLIPR), NK3; conditions: read-out: pIC50 NK3 (converted)
T2 sequence (P29371 1-465): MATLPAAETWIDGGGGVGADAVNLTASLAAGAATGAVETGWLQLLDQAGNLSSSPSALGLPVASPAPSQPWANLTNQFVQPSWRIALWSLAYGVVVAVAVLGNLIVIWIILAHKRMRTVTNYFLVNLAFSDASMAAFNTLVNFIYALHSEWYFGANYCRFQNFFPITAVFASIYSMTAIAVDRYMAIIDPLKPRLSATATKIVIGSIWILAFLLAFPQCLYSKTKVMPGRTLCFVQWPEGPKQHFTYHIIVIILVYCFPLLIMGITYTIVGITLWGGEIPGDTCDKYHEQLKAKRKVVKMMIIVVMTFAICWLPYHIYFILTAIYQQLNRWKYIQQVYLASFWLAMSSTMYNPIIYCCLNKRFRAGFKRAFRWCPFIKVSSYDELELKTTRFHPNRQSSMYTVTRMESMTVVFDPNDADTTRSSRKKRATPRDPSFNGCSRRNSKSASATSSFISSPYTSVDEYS

Chain of NK1 (P25103 whole entry): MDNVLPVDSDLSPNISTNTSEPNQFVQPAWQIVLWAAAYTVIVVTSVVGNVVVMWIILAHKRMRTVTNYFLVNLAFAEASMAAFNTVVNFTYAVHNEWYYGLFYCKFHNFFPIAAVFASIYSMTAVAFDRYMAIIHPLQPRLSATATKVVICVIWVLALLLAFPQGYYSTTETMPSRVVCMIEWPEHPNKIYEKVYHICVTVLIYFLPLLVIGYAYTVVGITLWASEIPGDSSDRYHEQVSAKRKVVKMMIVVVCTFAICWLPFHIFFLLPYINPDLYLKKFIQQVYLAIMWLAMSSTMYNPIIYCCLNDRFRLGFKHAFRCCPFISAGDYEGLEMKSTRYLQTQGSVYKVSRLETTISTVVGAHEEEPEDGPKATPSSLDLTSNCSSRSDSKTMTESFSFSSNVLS

Compound | IC50 (NK1) [nM] | IC50 (NK2) [nM] | IC50 (NK3) [nM]
O=C(C1CC1)N1CCC(N2CCN([C@H]3CCN(C(=O)c4cc(C(F)(F)F)cc(C(F)(F)F)c4)[C@H](Cc4ccc(Cl)c(Cl)c4)C3)CC2)C1 (relative stereo) [Compound 162] | 10 | 1000 | 501
O=C(c1ccccc1Cl)N1CCC(N2CCN([C@H]3CCN(C(=O)c4cc(C(F)(F)F)cc(C(F)(F)F)c4)[C@H](Cc4ccc(Cl)c(Cl)c4)C3)CC2)C1 (relative stereo) [Compound 164] | 15.8 | 79.4 | 398
O=C(c1ccoc1)N1CCC(N2CCN(C3CCN(C(=O)c4cc(C(F)(F)F)cc(C(F)(F)F)c4)C(Cc4ccccc4)C3)CC2)C1 (single isomer, unassigned) [Compound 32] | 12.6 | 5010 | 200
O=C(c1ccoc1)N1CCC(N2CCN(C3CCN(C(=O)c4cc(C(F)(F)F)cc(C(F)(F)F)c4)C(Cc4ccccc4)C3)CC2)C1 (single isomer, unassigned) [Compound 33] | 15.8 | 3980 | 501
O=C(c1ccsc1)N1CCC(N2CCN(C3CCN(C(=O)c4cc(C(F)(F)F)cc(C(F)(F)F)c4)C(Cc4ccccc4)C3)CC2)C1 (single isomer, unassigned) [Compound 39] | 15.8 | 3160 | 398
O=C(c1cccnc1)N1CCC(N2CCN([C@H]3CCN(C(=O)c4cc(C(F)(F)F)cc(C(F)(F)F)c4)[C@H](Cc4ccccc4)C3)CC2)C1 (stereo partly shown) [Compound 28] | 50.1 | 2510 | –
Cn1cc(C(=O)N2CCC(N3CCN([C@H]4CCN(C(=O)c5cc(C(F)(F)F)cc(C(F)(F)F)c5)[C@H](Cc5ccccc5)C4)CC3)C2)ccc1=O (stereo partly shown) [Compound 29] | 79.4 | 2000 | –
O=C1CCCN1CC(=O)N1CCC(N2CCN([C@H]3CCN(C(=O)c4cc(C(F)(F)F)cc(C(F)(F)F)c4)[C@H](Cc4ccccc4)C3)CC2)C1 (stereo partly shown) [Compound 214] | 20 | – | 3980
O=C(CN1CCOC1=O)N1CCC(N2CCN([C@H]3CCN(C(=O)c4cc(C(F)(F)F)cc(C(F)(F)F)c4)[C@H](Cc4ccccc4)C3)CC2)C1 (stereo partly shown) [Compound 215] | 31.6 | – | 5010
CC(C)(C)OC(=O)N1CCC(C(=O)N2CCC(N3CCN([C@H]4CCN(C(=O)c5cc(C(F)(F)F)cc(C(F)(F)F)c5)[C@H](Cc5ccccc5)C4)CC3)C2)C1 (stereo partly shown) [Compound 228] | 25.1 | – | 6310
CC(C)(C)OC(=O)N1CCCC(C(=O)N2CCC(N3CCN([C@H]4CCN(C(=O)c5cc(C(F)(F)F)cc(C(F)(F)F)c5)[C@H](Cc5ccccc5)C4)CC3)C2)C1 (stereo partly shown) [Compound 229] | 31.6 | – | 2510
O=C(c1cc(C(F)(F)F)cc(C(F)(F)F)c1)N1CC[C@H](N2CCN([C@@H]3CCNC3)CC2)C[C@H]1Cc1ccc(Cl)c(Cl)c1 [Compound 262] | 6.31 | 501 | –
O=C(C1CCOC1)N1CCC(N2CCN(C3CCN(C(=O)c4cc(C(F)(F)F)cc(C(F)(F)F)c4)C(Cc4ccc(F)cc4)C3)CC2)C1 (stereo not shown) [Compound 274] | 10 | – | 3980
O=C(C1CC1)N1CCC(N2CCN(C3CCN(C(=O)c4cc(C(F)(F)F)cc(C(F)(F)F)c4)C(Cc4ccc(F)cc4)C3)CC2)C1 (stereo not shown) [Compound 277] | 10 | – | 2510
O=C(C1CCCCN1)N1CCC(N2CCN(C3CCN(C(=O)c4cc(C(F)(F)F)cc(C(F)(F)F)c4)C(Cc4ccccc4)C3)CC2)C1 (stereo not shown) [Compound 294] | 20 | 7940 | –
COc1ccc(C(O)C(=O)N2CCC(N3CCN([C@H]4CCN(C(=O)c5cc(C(F)(F)F)cc(C(F)(F)F)c5)[C@H](Cc5ccccc5)C4)CC3)C2)cc1 (stereo partly shown) [Compound 333] | 20 | 2510 | –
O=C(c1cc(C(F)(F)F)cc(C(F)(F)F)c1)N1CCC(N2CCN(C3CCN(S(=O)(=O)c4cc(CCOCc5ccccc5)cs4)C3)CC2)CC1Cc1ccccc1 (stereo not shown) [Compound 335] | 316 | 1000 | –

Compound | IC50 (NK1) [nM] | IC50 (NK2) [nM] | IC50 (NK3) [nM]
O=C(c1cc(C(F)(F)F)cc(C(F)(F)F)c1)N1CC[C@H](N2CCN(C3CCN(S(=O)(=O)c4ccc(CCOCc5ccccc5)s4)C3)CC2)C[C@H]1Cc1ccccc1 (stereo partly shown) [Compound 336] | 158 | 1000 | –
CC(C)N/C(=N\C#N)N1CCC(N2CCN(C3CCN(C(=O)c4cc(C(F)(F)F)cc(C(F)(F)F)c4)C(Cc4ccccc4)C3)CC2)C1 (stereo not shown) [Compound 344] | 20 | 3980 | –
O=C(c1cc(C(F)(F)F)cc(C(F)(F)F)c1)N1CC[C@H](N2CCN(C3CCN(S(=O)(=O)c4ccc(COCc5ccccc5)s4)C3)CC2)C[C@H]1Cc1ccccc1 (stereo partly shown) [Compound 345] | 200 | 501 | –
O=C(c1ccc(CCOCc2ccccc2)s1)N1CCC(N2CCN(C3CCN(C(=O)c4cc(C(F)(F)F)cc(C(F)(F)F)c4)C(Cc4ccccc4)C3)CC2)C1 (stereo not shown) [Compound 356] | 126 | – | 3980
Cc1nc2c(o1)CCn1ccnc1C2N1CCC(N2CCN(C3CCN(C(=O)c4cc(C(F)(F)F)cc(C(F)(F)F)c4)C(Cc4ccccc4)C3)CC2)C1 (stereo not shown) [Compound 375] | 12.6 | – | 3980
CC1(C)OCC(CNC(=C[N+](=O)[O-])N2CCC(N3CCN([C@H]4CCN(C(=O)c5cc(C(F)(F)F)cc(C(F)(F)F)c5)[C@H](Cc5ccccc5)C4)CC3)C2)O1 (stereo partly shown) [Compound 376] | 25.1 | – | 3980
O=C(c1cc(C(F)(F)F)cc(C(F)(F)F)c1)N1CC[C@H](N2CCN(C3CCN(C(=C[N+](=O)[O-])N4CCCC4)C3)CC2)C[C@H]1Cc1ccccc1 (stereo partly shown) [Compound 377] | 15.8 | – | 6310
CC(C)N1CC(CN2CCC(N3CCN(C4CCN(C(=O)c5cc(C(F)(F)F)cc(C(F)(F)F)c5)C(Cc5ccccc5)C4)CC3)C2)OC1=O (stereo not shown) [Compound 385] | 31.6 | – | 3980
O=C1CC[C@@H](C(=O)N2CCC(N3CCN([C@H]4CCN(C(=O)c5cc(C(F)(F)F)cc(C(F)(F)F)c5)[C@H](Cc5ccccc5)C4)CC3)C2)O1 (stereo partly shown) [Compound 386] | 20 | – | 5010
O=C1CC[C@H](C(=O)N2CCC(N3CCN([C@H]4CCN(C(=O)c5cc(C(F)(F)F)cc(C(F)(F)F)c5)[C@H](Cc5ccccc5)C4)CC3)C2)O1 (stereo partly shown) [Compound 387] | 20 | – | 5010
CC(C)(C)OCC(=O)N1CCC(N2CCN([C@H]3CCN(C(=O)c4cc(C(F)(F)F)cc(C(F)(F)F)c4)[C@H](Cc4ccccc4)C3)CC2)C1 (stereo partly shown) [Compound 388] | 15.8 | – | 794
CC(=O)OCC(=O)N1CCC(N2CCN(C3CCN(C(=O)c4cc(C(F)(F)F)cc(C(F)(F)F)c4)C(Cc4ccccc4)C3)CC2)C1 (stereo not shown) [Compound 389] | 15.8 | – | 6310
CC(C)(C)OCCC(=O)N1CCC(N2CCN(C3CCN(C(=O)c4cc(C(F)(F)F)cc(C(F)(F)F)c4)C(Cc4ccccc4)C3)CC2)C1 (stereo not shown) [Compound 391] | 20 | – | 3160
CC1(C)OC(=O)[C@@H](CC(=O)N2CCC(N3CCN([C@H]4CCN(C(=O)c5cc(C(F)(F)F)cc(C(F)(F)F)c5)[C@H](Cc5ccccc5)C4)CC3)C2)O1 (stereo partly shown) [Compound 392] | 251 | – | 7940
O=C(c1cc(C(F)(F)F)cc(C(F)(F)F)c1)N1CC[C@H](N2CCN(C3CCN(S(=O)(=O)c4occc4CCOCc4ccccc4)C3)CC2)C[C@H]1Cc1ccccc1 (stereo partly shown) [Compound 410] | 50.1 | 1260 | –
COCCC(=O)N1CC[C@H](N2CCN([C@H]3CCN(C(=O)c4cc(C(F)(F)F)cc(C(F)(F)F)c4)[C@H](Cc4ccccc4)C3)CC2)C1 [Compound 413] | 31.6 | – | 2000
COCCC(=O)N1CC[C@@H](N2CCN([C@H]3CCN(C(=O)c4cc(C(F)(F)F)cc(C(F)(F)F)c4)[C@H](Cc4ccccc4)C3)CC2)C1 [Compound 414] | 39.8 | – | 631
